Assay results taken from US11149271B2, “Method and pharmaceutical composition for treating cancer” (Macau University of Science and Technology, priority 2018, dated 2021).

Legend:
[1] = system: Taxol-resistant A2780T cells; experiment: MTT cytotoxicity assay on Taxol-resistant A2780 cells; type: cell-based, human
Method: (§1) A2780, Taxol-resistant A2780, HCT-8, Taxol-resistant HCT-8 and Taxol-resistant A549 cell lines were cultured in RPMI Medium 1640 medium containing 10% FBS and 1% penicillin/streptomycin. HepG2 and MCF-7 cell lines were cultured in Minimum Essential medium containing 10% FBS and 1% penicillin/streptomycin. All cell lines above were cultured at humidified atmosphere containing 5% CO2 at 37° C.
(§2) In the cytotoxicity assay, exponentially growing cells of each cancer cell line were plated in 96-well microplate at a density of 5000 cells per well in 100 μL of culture medium and allowed to adhere for 24 h before treatment. Serial concentrations of RNA molecules obtained in Example 1 and 2 in a mixture containing a gene delivery carrier, i.e. Lipofectamine™ RNAiMAX Transfection Reagent (Thermo Fisher Scientific, U.S.A.) were then added to the cells. After treated for 48 h, MTT solution (50 μL per well, 1 mg/mL solution) was added to each well and incubated for 4 h at 37° C. Subsequently, 200 μL dimethyl sulfoxide (DMSO) were added and the optical densities of the resulting solutions were calorimetrically determined at 570 nm using a SpectraMax 190 microplate reader (Molecular Devices, Sunnyvale, Calif., U.S.A). Dose-response curves were obtained, and the IC50 values were calculated by GraphPad Prism 5 (GraphPad, La Jolla, Calif., USA). […] IC50 results were expressed as means±standard deviation.

[2] = system: A2780 cells tumor xenografts; experiment: In vivo antitumor effect, A2780 xenograft in nude mice; set-up: species or system BALB/c nude mice; details: 2.4 mg/kg with 1% atelocollagen, tumor-adjacent injection once a week; for inhibition of tumor growth (ratio of tumor volume): 28 days (FIG. 7A); for body weight (ratio of weight changes): 28 days (FIG. 7B)
Method: Animal model having xenograft cancer was set. Female BALB/c nude mice (6-8-week old) were purchased from Shanghai SLAC Laboratory Animal Co., Ltd. and maintained at 25° C. with free access to food and water in a special pathogen-free laboratory of the animal environment facilities. The animal experiments were performed in compliance with institutional animal care guidelines and according to committee-approved protocol. To generate tumor xenografts, A2780 cells (4.0×10^6) were injected subcutaneously in 100 μL of 1640 medium through a 27-gauge needle into the armpit of 8-week-old BALB/c nude mice. After 4-5 weeks after tumors had reached 60-70 mm^3, the tumor-bearing nude mice were treated with synthesized tRF with atelocollagen (Koken Co., Ltd., Tokyo, Japan). The concentration of atelocollagen was 1%, and tumor-adjacent injection was performed by one dose of HC11 or HC30 (RNA molecule of SEQ ID NO: 1 or SEQ ID NO: 9) (GenePharma Co., Ltd., Shanghai, China) at concentration of 2.4 mg/kg with atelocollagen once a week. A control group was set up in which vehicle was administered to the mice. A Taxol group for administering 1 mg/kg Taxol to the mice was also set as a comparison. The entire treatment lasted for 28 days.
Tumor diameters were measured at maximum length and maximum width with digital calipers. And the tumor volume was calculated by the formula: volume=(width)^2×length/2. The data were statistically analyzed using GraphPad Prism 5 (GraphPad, La Jolla, Calif., USA). […] In other words, the RNA molecules of the present invention are effective in treating cancer cells both in vivo and in vitro.

[3] = system: Taxol-resistant A549T cells; experiment: MTT cytotoxicity assay on Taxol-resistant A549 cells; type: cell-based, human
Method: as §1, §2

A2780 cells = experiment: MTT cytotoxicity assay on A2780 cells; type: cell-based, human; details: for IC50 / inhibition of growth and proliferation (cell viability): 48 h; for IC50: MTT; for inhibition of growth and proliferation (cell viability): 25 nM tRNA, RNAiMAX transfection, A2780 ovarian cancer cells (FIG. 3)
Method: as §1
(§3) In the cytotoxicity assay, exponentially growing cells of each cancer cell line were plated in 96-well microplate at a density of 5000 cells per well in 100 μL of culture medium and allowed to adhere for 24 h before treatment. Serial concentrations of RNA molecules obtained in Example 1 and 2 in a mixture containing a gene delivery carrier, i.e. Lipofectamine™ RNAiMAX Transfection Reagent (Thermo Fisher Scientific, U.S.A.) were then added to the cells. After treated for 48 h, MTT solution (50 μL per well, 1 mg/mL solution) was added to each well and incubated for 4 h at 37° C. Subsequently, 200 μL dimethyl sulfoxide (DMSO) were added and the optical densities of the resulting solutions were calorimetrically determined at 570 nm using a SpectraMax 190 microplate reader (Molecular Devices, Sunnyvale, Calif., U.S.A). Dose-response curves were obtained, and the IC50 values were calculated by GraphPad Prism 5 (GraphPad, La Jolla, Calif., USA). Each experiment was carried out for three times. IC50 results were expressed as means±standard deviation.

[4] = system: Taxol-resistant HCT-8 cells (HCT-8T); experiment: MTT cytotoxicity assay on Taxol-resistant HCT-8 cells; type: cell-based; details: 50 nM, 22 bp (FIG. 5F)
Method: as §1, §3

HCT-8 cells = experiment: MTT cytotoxicity assay on HCT-8 cells; type: cell-based; details: for dose dependence of growth and proliferation inhibition: 6.25-100 nM (FIG. 6G, 6H); for IC50: 48 h, MTT
Method: as §1, §3

MCF-7 cells = experiment: MTT cytotoxicity assay on MCF-7 cells; type: cell-based, human; details: 25 nM tRNA, 48 h, RNAiMAX transfection, MCF-7 breast cancer cells (FIG. 3)
Method: as §1, §3

HepG2 cells = experiment: MTT cytotoxicity assay on HepG2 cells; type: cell-based, human; details: 25 nM tRNA, 48 h, RNAiMAX transfection, HepG2 liver cancer cells (FIG. 3)
Method: as §1, §3

Row | Molecule | cytotoxic effect (cell viability) [4] | inhibition of growth and proliferation (cell viability) (MCF-7 cells) | inhibition of growth and proliferation (cell viability) (A2780 cells) | inhibition of growth and proliferation (cell viability) (HepG2 cells) | also measured
1 | HC11: double-stranded RNA, sense SEQ ID NO: 1, antisense SEQ ID NO: 101, 22 bp, 5′-t of tRNA^His(GUG) (sense GCGGACGUAGCCAAGUGGUCCA; antisense UGGACCACUUGGCUACGUCCGC; RNA, backbone and methylation of C not given here; synthetic double-stranded RNA) |  |  |  |  | dose dependence of growth and proliferation inhibition ([1]; A2780T cells, 6.25-200 nM (FIG. 6C)): dose-dependent effect; IC50 ([1]; Taxol-resistant A2780T cells, 48 h, MTT): 32.3 nM; inhibition of tumor growth (ratio of tumor volume) [2]: effective in inhibiting the growth of the tumor; body weight (ratio of weight changes) [2]: maintaining a relative constant body weight; dose dependence of growth and proliferation inhibition ([3]; A549T cells, 6.25-200 nM (FIG. 6E)): dose-dependent effect; IC50 ([3]; Taxol-resistant A549T cells, 48 h, MTT): 87.3 nM; dose dependence of growth and proliferation inhibition (A2780 cells; A2780 cells, 6.25-100 nM (FIG. 6A)): dose-dependent effect; IC50 (A2780 cells; A2780 cells): 31 nM
2 | HC18: double-stranded RNA, sense SEQ ID NO: 13, antisense SEQ ID NO: 113, 22 bp, 5′-t of tRNA^Leu(CAA) (sense GCCUUGAUGGUGAAAUGGUAGA; antisense UCUACCAUUUCACCAUCAAGGC; RNA, backbone and methylation of C not given here; synthetic double-stranded RNA) | useful in treating cancer which is resistant against Taxol |  |  |  | 
3 | HC30: double-stranded RNA, sense SEQ ID NO: 9, antisense SEQ ID NO: 109, 22 bp, 5′-t of tRNA^Trp(CCA) (sense GCGCUCUUAGUUCAGUGCGGUA; antisense UACCGCACUGAACUAAGAGCGC; RNA, backbone and methylation of C not given here; synthetic double-stranded RNA) |  |  |  |  | inhibition of tumor growth (ratio of tumor volume) [2]: effective in inhibiting the growth of the tumor; body weight (ratio of weight changes) [2]: maintaining a relative constant body weight
4 | HC34: double-stranded RNA, sense SEQ ID NO: 25, antisense SEQ ID NO: 125, 22 bp, 5′-t of tRNA^Cys(GCA) (sense GGCGACAUAGCCAAGUGGUAAG; antisense CUUACCACUUGGCUAUGUCGCC; RNA, backbone and methylation of C not given here; synthetic double-stranded RNA) | useful in treating cancer which is resistant against Taxol |  |  |  | 
5 | HC36: double-stranded RNA, sense SEQ ID NO: 29, antisense SEQ ID NO: 129, 22 bp, 5′-t of tRNA^Asn(GUU) (sense CCUCAGUAGCUCAGUGGUAGAG; antisense CUCUACCACUGAGCUACUGAGG; RNA, backbone and methylation of C not given here; synthetic double-stranded RNA) | useful in treating cancer which is resistant against Taxol |  |  |  | dose dependence of growth and proliferation inhibition (HCT-8 cells): dose-dependent effect; IC50 (HCT-8 cells): 8.2 nM
6 | HC37: double-stranded RNA, sense SEQ ID NO: 31, antisense SEQ ID NO: 131, 22 bp, 3′-t of tRNA^Asn(GUU) (sense GGUUCAAAUCCUAUUUGAGGAG; antisense CUCCUCAAAUAGGAUUUGAACC; RNA, backbone and methylation of C not given here; synthetic double-stranded RNA) | useful in treating cancer which is resistant against Taxol |  |  |  | dose dependence of growth and proliferation inhibition (HCT-8 cells): dose-dependent effect; IC50 (HCT-8 cells): 9.3 nM
7 | HC39: double-stranded RNA, sense SEQ ID NO: 35, antisense SEQ ID NO: 135, 22 bp, 3′-t of tRNA^Met(CAU) (sense GGUUCAAAUCCCGUCUCCGCAA; antisense UUGCGGAGACGGGAUUUGAACC; RNA, backbone and methylation of C not given here; synthetic double-stranded RNA) | useful in treating cancer which is resistant against Taxol |  |  |  | 
8 | tRNA^His(GUG): tRNA isolated from Taxus chinensis (Pilger) Rehd. var. mairei, 78 mer (nucleic acid, expressed or natural sequence, tRNA isolated from Taxus chinensis (Pilger) Rehd. var. mairei, 78 mer) GCGGACGUAGCCAAGUGGUCCAAAGGCAGUGGAUUGUGAAUCCACCACGCGCGGGUUCAAUCCCCGUCGUUCGCCCCA |  | capable of inhibiting the growth and proliferation | capable of inhibiting the growth and proliferation | capable of inhibiting the growth and proliferation | 
9 | tRNA^Glu(UUC): tRNA isolated from Taxus chinensis (Pilger) Rehd. var. mairei, 76 mer (nucleic acid, expressed or natural sequence, tRNA isolated from Taxus chinensis (Pilger) Rehd. var. mairei, 76 mer) GCCCCUAUCGUCUAGUGGCCCAGGACAUCUCUCUUUCAAGGAGGCAACGGGGAUUCGAUUUCCCCUAGGGGUACCA |  | capable of inhibiting the growth and proliferation | capable of inhibiting the growth and proliferation | capable of inhibiting the growth and proliferation | 
10 | tRNA^Trp(CCA): tRNA isolated from Taxus chinensis (Pilger) Rehd. var. mairei, 75 mer (nucleic acid, expressed or natural sequence, tRNA isolated from Taxus chinensis (Pilger) Rehd. var. mairei, 75 mer) GCGCUCUUAGUUCAGUGCGGUAGAACGCAGGUCUCCAAAACCUGAUGCCGUAGGUUCAAAUCCUACAGAGCGCCA |  | capable of inhibiting the growth and proliferation | capable of inhibiting the growth and proliferation | capable of inhibiting the growth and proliferation | IC50 (A2780 cells; A2780 cells): ~14.3 nM
11 | tRNA^Leu(CAA): tRNA isolated from Taxus chinensis (Pilger) Rehd. var. mairei, 84 mer (nucleic acid, expressed or natural sequence, tRNA isolated from Taxus chinensis (Pilger) Rehd. var. mairei, 84 mer) GCCUUGAUGGUGAAAUGGUAGACACGCGAGACUCAAAAUCUCGUGCUAAACAGCGUGGAGGUUCGAAUCCUCUUCAAGGCACCA |  | capable of inhibiting the growth and proliferation | capable of inhibiting the growth and proliferation | capable of inhibiting the growth and proliferation | 
12 | tRNA^Arg(ACG): tRNA isolated from Taxus chinensis (Pilger) Rehd. var. mairei, 77 mer (nucleic acid, expressed or natural sequence, tRNA isolated from Taxus chinensis (Pilger) Rehd. var. mairei, 77 mer) GGGCCUGUAGCUCAGAGGAUUAGAGCACGUGGUUGCGAACCACGGUGUCGGGGGUUCGAAUCCCUCCUCGCCCACCA |  | capable of inhibiting the growth and proliferation | capable of inhibiting the growth and proliferation | capable of inhibiting the growth and proliferation | 
